Data: PubChem BioAssay (NCI)
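Grown in 96-well plates, cells were treated for 48 hours with each compound at five concentrations. Insufficient inhibition: endpoint recorded as highest concentration tested. Abbreviation: GI50, concentration required for 50% inhibition of growth. TGI is the concentration that stops growth completely.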 Where a SMILES comes first, the peptide text is derived from it. [ ]: non-standard residue; d: D form. The star is where a group is joined. ξ: configuration not given here. ξF = NC(Cc1ccccc1)C(=O)O; Cbz = O=C(OCc1ccccc1)*; Aib = CC(C)(N)C(=O)O

Tests used:
Assay in all cases: NCI-60 cell line screen, 48 h
[1] = test system: ACHN renal
[2] = test system: M14 melanoma
[3] = test system: MCF7 breast
[4] = test system: NCI-H460 lung
[5] = test system: OVCAR-8 ovarian
[6] = test system: SF-268 CNS
[7] = test system: SN12C renal
[8] = test system: SNB-75 CNS
[9] = test system: A549 NSCLC
[10] = test system: MALME-3M melanoma

Brc1ccc(N=NN2CCCCC2)cc1
TGI [1]: > 100 µM | TGI [2]: > 100 µM | TGI [3]: > 100 µM | TGI [4]: > 100 µM | TGI [5]: > 100 µM | TGI [6]: > 100 µM | TGI [7]: > 100 µM | TGI [8]: > 100 µM

COc1cc(OC)c2c(O)cc(CC(C)O)cc2c1 (stereo unspecified)
TGI [9]: > 100 µM | TGI [1]: > 100 µM | TGI [2]: > 100 µM | TGI [10]: > 100 µM | TGI [4]: > 100 µM | TGI [5]: > 100 µM | TGI [6]: > 100 µM | TGI [7]: > 100 µM | TGI [8]: > 100 µM

O=C(CSc1nc2ccccc2[nH]1)Nc1ccc(-c2nc3ccccc3s2)c(Cl)c1
GI50 [9]: 3.25 µM | TGI [9]: > 100 µM | GI50 [1]: 4.52 µM | TGI [1]: 57.4 µM | GI50 [10]: 2.59 µM | TGI [10]: 8.92 µM | GI50 [3]: 3.58 µM | TGI [3]: > 100 µM | GI50 [4]: 3.47 µM | TGI [4]: > 100 µM | GI50 [5]: 3.35 µM | TGI [5]: > 100 µM | GI50 [6]: 1.88 µM | TGI [6]: 4.37 µM | GI50 [8]: 6.58 µM | TGI [8]: > 100 µM

CN(C)C(=S)N/N=C\C=N/NC(=S)N(C)C
TGI [9]: > 100 µM | TGI [2]: 3.22 µM | TGI [3]: > 100 µM | TGI [4]: > 100 µM | TGI [5]: > 100 µM | TGI [6]: > 20.2 µM | TGI [7]: 11.1 µM | TGI [8]: > 100 µM

Cc1ccc(C(=O)N(C2CCCCC2)C2CCCCC2)cc1N=NN(C)C
TGI [9]: 31.8 µM | TGI [1]: 22.4 µM | TGI [2]: 32.6 µM | TGI [10]: 31 µM | TGI [3]: 29.7 µM | TGI [4]: 35.5 µM | TGI [5]: 27.5 µM | TGI [6]: 27.7 µM | TGI [7]: 28.7 µM

O=C(c1ccc(Cl)cc1)c1ccc(OCC(=O)N2CCN(c3ccccc3)CC2)cc1
TGI [9]: > 100 µM | TGI [1]: > 100 µM | TGI [2]: > 100 µM | TGI [10]: > 100 µM | TGI [4]: > 100 µM | TGI [5]: > 100 µM | TGI [6]: > 100 µM | TGI [7]: > 100 µM | TGI [8]: > 100 µM

Cc1cn(C2CC(n3cc(Cn4cc(F)c(=O)[nH]c4=O)nn3)C(CO)O2)c(=O)[nH]c1=O (stereo unspecified)
TGI [9]: > 100 µM | TGI [1]: > 100 µM | TGI [2]: > 100 µM | TGI [10]: > 100 µM | TGI [3]: > 100 µM | TGI [5]: > 100 µM | TGI [6]: > 100 µM | TGI [7]: > 100 µM | TGI [8]: > 100 µM

CC1(C)OC2OC(COC(=O)C=[N+]=[N-])C3OC(C)(C)OC3C2O1 (stereo unspecified)
TGI [1]: > 100 µM | TGI [10]: > 100 µM | TGI [3]: > 100 µM | TGI [4]: > 100 µM | TGI [6]: > 100 µM | TGI [7]: > 100 µM

CCCCOC(=O)CNC(=O)OCCCCC#CC#CCCCCOC(=O)NCC(=O)OCCCC
TGI [9]: > 100 µM | TGI [1]: > 100 µM | TGI [2]: > 100 µM | TGI [10]: > 100 µM | TGI [4]: > 100 µM | TGI [5]: > 100 µM | TGI [6]: > 100 µM | TGI [7]: > 100 µM | TGI [8]: > 100 µM

COc1ccc2c(c1)O[C@@H]1C(O)Oc3cc(OC)c(OC)cc3[C@]1(O)C2=O (stereo partly specified)
TGI [9]: > 100 µM | TGI [1]: > 100 µM | TGI [2]: > 100 µM | TGI [3]: > 100 µM | TGI [4]: > 100 µM | TGI [5]: > 100 µM | TGI [6]: > 100 µM | TGI [7]: > 100 µM | TGI [8]: > 100 µM

CC(C)CCCC(C)[C@H]1CCC2[C@@H]3CCC4Cc5nc6c(nc5C[C@]4(C)C3CC[C@@]21C)CC1CC[C@@H]2C(C[C@@H](O)[C@@]3(C)C2C[C@@H]2OC4(CCC(C)CO4)C(C)[C@@H]23)[C@@]1(C)C6 (stereo partly specified)
TGI [9]: > 100 µM | TGI [1]: > 100 µM | TGI [2]: > 100 µM | TGI [3]: > 100 µM | TGI [4]: > 100 µM | TGI [5]: > 100 µM | TGI [6]: > 100 µM | TGI [7]: > 100 µM | TGI [8]: > 100 µM

COc1cc(-c2nc3cc(F)ccc3s2)ccc1O
TGI [9]: > 100 µM | TGI [1]: > 100 µM | TGI [2]: > 100 µM | TGI [10]: > 100 µM | TGI [3]: > 100 µM | TGI [4]: > 100 µM | TGI [5]: > 100 µM | TGI [6]: > 100 µM | TGI [7]: > 100 µM

NCCC(N)C(=O)O (stereo unspecified)
TGI [9]: > 100 µM | TGI [1]: > 100 µM | TGI [2]: > 100 µM | TGI [10]: > 100 µM | TGI [3]: > 100 µM | TGI [4]: > 100 µM | TGI [5]: > 100 µM | TGI [6]: > 100 µM | TGI [7]: > 100 µM

N#CC1=C2Sc3ccccc3N2[C@H](c2ccccc2)[C@H]2COC(=O)[C@@H]12
TGI [9]: > 100 µM | TGI [1]: > 100 µM | TGI [2]: > 100 µM | TGI [10]: 81.8 µM | TGI [3]: > 100 µM | TGI [5]: > 100 µM | TGI [6]: 74.1 µM | TGI [8]: 97.1 µM

COc1ccc(N(C(=O)Nc2ccc(Cl)c(Cl)c2)c2ccccc2)cc1
TGI [9]: > 10 µM | TGI [1]: > 10 µM | TGI [2]: > 10 µM | TGI [10]: > 10 µM | TGI [3]: > 10 µM | TGI [4]: > 10 µM | TGI [5]: > 10 µM | TGI [6]: > 10 µM | TGI [7]: > 10 µM

Cn1c(=O)c2c(nc(NCCCCl)n2CC(=O)O)n(C)c1=O
TGI [9]: > 100 µM | TGI [1]: > 100 µM | TGI [2]: > 100 µM | TGI [3]: > 100 µM | TGI [4]: > 100 µM | TGI [5]: > 100 µM | TGI [6]: > 100 µM | TGI [7]: > 100 µM | TGI [8]: > 100 µM

COC(=O)C12Oc3ccc(-c4ccc5c(c4O)C(=O)C4=CCC(C)C(O)C4(C(=O)OC)O5)c(O)c3C(=O)C1=CCC(C)C2O (stereo unspecified)
TGI [9]: 6.59 µM | TGI [1]: 3.21 µM | TGI [2]: 3.46 µM | TGI [10]: 3.28 µM | TGI [4]: 6.33 µM | TGI [5]: 7.33 µM | TGI [6]: 3.57 µM | TGI [7]: 5.46 µM | TGI [8]: 20.5 µM

CCCCCc1cc(OC(=O)c2c(O)cc(OC)cc2CCCCC)cc(O)c1C(=O)O
TGI [9]: 35.6 µM | TGI [1]: 35.9 µM | TGI [2]: 38.1 µM | TGI [10]: 26.1 µM | TGI [4]: 31.3 µM | TGI [5]: 36.3 µM | TGI [6]: 30 µM | TGI [7]: 32.8 µM | TGI [8]: 32.5 µM

Cc1ccc([N+](=O)[O-])cc1S(=O)(=O)Nc1ccc(C2=NN(c3ccc([N+](=O)[O-])cc3[N+](=O)[O-])C(c3ccccc3)C2)cc1 (stereo unspecified)
TGI [9]: 96.6 µM | TGI [1]: 40.3 µM | TGI [2]: 51.1 µM | TGI [10]: 41.6 µM | TGI [3]: 26.3 µM | TGI [5]: 40.2 µM | TGI [6]: 28 µM | TGI [7]: 33.2 µM | TGI [8]: 52.4 µM

O=[N+]([O-])c1cccc(-c2csc(N=Nc3c(O)[nH]c4ccccc34)n2)c1
TGI [9]: 44 µM | TGI [1]: > 100 µM | TGI [2]: > 100 µM | TGI [3]: > 100 µM | TGI [4]: 31.8 µM | TGI [5]: 30 µM | TGI [6]: 38.4 µM | TGI [7]: 49.7 µM | TGI [8]: 56.1 µM

CC(C)(NC(=O)OCc1ccccc1)C(=O)NC(Cc1ccccc1)C(=O)O (stereo unspecified) (Cbz-[Aib]-[ξF]-OH)
TGI [9]: > 100 µM | TGI [2]: > 100 µM | TGI [10]: > 100 µM | TGI [3]: > 100 µM | TGI [4]: > 100 µM | TGI [5]: > 100 µM | TGI [7]: > 100 µM | TGI [8]: > 100 µM

COC(=O)CCCc1ccc2c(c1)CC1(C2)Cc2cc3c(cc2C1)CCCC3
TGI [9]: 67.7 µM | TGI [1]: > 100 µM | TGI [2]: 68.2 µM | TGI [10]: > 100 µM | TGI [3]: > 100 µM | TGI [5]: > 100 µM | TGI [7]: > 100 µM
